From PMC9778984, “5′-Chalcogen-Substituted Nucleoside Pyrophosphate and Phosphate Monoester Analogues: Preparation and Hydrolysis Studies” (International Journal of Molecular Sciences, 2022)

Tests used:
[1] = pKa of the phosphoryl moieties by 31P NMR titration; assay type: physicochemical; details: from Pβ resonance shift on acidification of aqueous solution; represents a maximum pKa value
Protocol: (§1) In order to further assess the potential for chalcogen-substituted pyrophosphate linkages to enable targeted drug delivery, the pKa values of the phosphoryl moieties were assessed using ^31P NMR titration. […] Similar values were determined for dTChppA (3.2 for 2a; 3.4 for 2b) although maximal shifts of 0.2 ppm were observed and a second inflection at ca. pH 8.5 may indicate that the shifts reflect nucleobase ionisation as significant intramolecular base stacking occurs in AppA and other dinucleoside pyrophosphates. However, the titrations’ inflections represent a maximum pKa value and therefore indicate that these moieties will be fully charged at physiological pH. We therefore briefly compared the cleavage of these pyrophosphates using snake venom monitoring the reactions of NADH, dTSppA (2a) and dTSeppA (2b) by ^31P NMR. Over 95% consumption of the native pyrophosphate substrate was observed consumed within one hour. In contrast, ca. 25% and 20% of the sulfur- and selenium-substituted analogues were cleaved during this timeframe. […] In contrast, digestion of dTSeppA plateaued at ca. 45% which may result from denaturation of the protein following release of 5′-dTSeMP and subsequent spontaneous hydrolysis to the corresponding selenol and its subsequent interaction with the active site zinc dyad and disulfide linkages.

[2] = Hydrolysis of dinucleoside pyrophosphates at 90 °C, analysed by CZE and RP-HPLC; assay type: physicochemical; details: for half-life of the total disappearance: neutral conditions; for rate constant for the decomposition of the deadenylation (depurination) product / rate constant for the formation of the deadenylation (depurination) product: kinetics of parallel and consecutive reactions
Protocol: Reactions of pyrophosphates dASppA (1a) and 3′,5′-dTSppA (3) were studied at 90 °C. Samples taken from reaction solutions were analysed by two methods: capillary zone electrophores (CZE) and reversed-phase HPLC (RP-HPLC), for detection of polar and neutral reaction components, respectively. […] In general, the reactivity of 1a and 3 is low; the half-lives under neutral conditions are measured in tens of days even at 90 °C. The rate of the total disappearance of thiopyrophosphates 1a and 3 is practically pH-independent between pH 6 to 9. The reactivity increases at a lower pH; under alkaline conditions, the rate-enhancement is more modest.
Kinetic experiments with dinucleoside pyrophosphates 1a,b and 3 have been carried out using methods that have been reported previously, and are only briefly described below. Other experimental methods are described in detail in the Supplementary Materials (Figures S1 and S2, Tables S1 and S2).
Capillary zone electrophoretic (CZE) analysis was carried on an HP ^3DCE or on a Beckman Coulter P/ACE MDQA equipment. A fused silica capillary (57 cm effective length, 75 μm i.d.) was used. The background electrolyte was a 25 mM potassium phosphate buffer (pH 7.2). A voltage of 25–30 kV was applied and the compounds were detected at […] (HP) or 254 nm (Beckman).
RP-HPLC analysis was carried on an Agilent 1100 HPLC equipped with a DAD-detector. A Supelcosil LC-18 column (25 × 0.4 cm, particle size 5 μm) was used to separate reaction components. Eluents were mixtures of acetonitrile (MeCN) (Honeywell, Germany) and acetate buffer (0.05 M, pH 4.3) containing 0.1 M ammonium chloride (Sigma-Aldrich, Seelze, Germany). The gradient program used in routine analysis was as follows: 0–10 min isocratic 5% MeCN, 10–20 min a linear gradient to 33% MeCN, 20–30 min isocratic 33% MeCN, 30–35% a linear gradient to 5% MeCN. Flow rate was 1 mL/ min. UV-active compounds were detected at 260 nm.
Rate constants were calculated by applying the integrated first-order rate law to the disappearance of the starting material. Rate constants for the formation and decompositions of products were calculated by applying the rate law of parallel and consecutive reactions. In the case of 2, the concentration of the starting material and products were determined using calibration curves based on authentic samples. Diphenyl phosphate was used as an internal standard in reactions.

snake venom (SVPDE) = assay: Snake venom (SVPDE) digestion monitored by 31P NMR; assay type: biochemical; details: for mM consumed (31P NMR): 10 mM substrate, 37 °C, pH 7.5; for substrate consumed (digestion): over the subsequent 14 h; for substrate consumed (cleaved): within one hour
Protocol: as §1
To a solution of 10 mM substrate (NADH/dTSppA (2a)/dTSeppA (2b)) in aqueous buffer (TrisꞏHCl (50 mM, pH 7.5), NaCl (50 mM), 1mM MgCl2ꞏ(H2O)6) was added a solution of snake venom 0.2 mg/µL (10 µL). The reaction mixtures were incubated at 37°C for 30 minutes. Digestion was monitored by 31P NMR. dX(Ch)ppA SV P D digestion […]
mM NADH mM dTSppA mM dTSeppA time/h consumed time/h consumed time/h consumed

[3] = Hydrolysis of nucleotides (phosphorus-chalcogen bond cleavage of monoesters) in aqueous buffer, monitored by 31P NMR; assay type: physicochemical; details: for ΔH^‡ of phosphorus-chalcogen bond cleavage / ΔS^‡ of phosphorus-chalcogen bond cleavage: neutral pH, Eyring parameters from variable temperature NMR
Protocol: Novel sulfur and selenium substituted 5′,5′-linked dinucleoside pyrophate analogues were prepared in a vibration ball mill from the corresponding persilylated monophosphate. The chemical hydrolysis of pyrophosphorochalcogenolate-linked dimers was studied over a wide pH-range. […] The chemical stability of the precursor phosphorochalcogenolate monoesters was also investigated. […] The rate of dephosphorylation was dependent upon both the nature of the chalcogen and the pH. The integrity of the P-S bond in the corresponding phosphorothiolate was maintained at high pH but rapidly degraded at pH 3. In contrast, P-Se bond cleavage of the phosphoroselenolate monoester was rapid and the rate increased with alkalinity. The results obtained in kinetic experiments provide insight on the reactivity of the novel pyrophosphates studied as well as of other types of thiosubstituted biological phosphates.
Evidence for a dissociative transition state can be seen in the Eyring parameters derived from variable temperature NMR analysis of the phosphorus-chalcogen bond cleavage kinetics at 29 8K, 308 K and 318 K under neutral pH conditions. Thus, positive ΔS^‡ values of 79 and 35 J mol^−1 K^−1 were determined for 5′-dTSMP (4a) and 5′-dTSeMP (4b), respectively.

[4] = as above; assay type: physicochemical

## Nc1ncnc2c1ncn2[C@@H]1O[C@H](COP(=O)(O)OP(=O)(O)SC[C@H]2O[C@@H](n3cnc4c(N)ncnc43)[C@H](O)[C@@H]2O)[C@@H](O)[C@H]1O [1a, 5′-Thioadenosine 5′-Pyrophosphate (P′→5′) adenosine]
[1]
  pKa: 3
[2]; 90 °C
  half-life of the total disappearance: tens of days
[2]; pH 2, 90 °C
  rate constant of the total disappearance: 9.3e-05 s⁻¹
[2]; pH 2, 90 °C, same conditions, Ap2A value from ref 33
  phosphate hydrolysis rate constant relative to that reported for Ap2A (1c): six times larger
[2]; pH 2, 90 °C, total disappearance divided, assuming the two deadenylation routes are equally fast
  rate constant of phosphate hydrolysis: 5.5e-05 s⁻¹

## Nc1ncnc2c1ncn2[C@@H]1O[C@H](COP(=O)(O)OP(=O)(O)[Se]C[C@H]2O[C@@H](n3cnc4c(N)ncnc43)[C@H](O)[C@@H]2O)[C@@H](O)[C@H]1O [1b, 5′-deoxy-5′-selenoadenosine 5′-pyrophosphate (P′ →5′) adenosine]
[1]
  pKa: 3.3
[2]; pH 2, 90 °C
  rate constant of the total disappearance: (1.55 ± 0.04) × 10^−4 s^−1
[2]; pH above acidic, where the reaction is not first-order, 90 °C, difference largest under neutral conditions
  rate constants from the initial linear plot relative to those obtained for 1a: 5 to 20 times

## Cc1cn([C@H]2C[C@H](O)[C@@H](CSP(=O)(O)OP(=O)(O)OC[C@H]3O[C@@H](n4cnc5c(N)ncnc54)[C@H](O)[C@@H]3O)O2)c(=O)[nH]c1=O [2a, 5'-thiothymidine 5'-pyrophosphate (P' →5') adenosine]
[1]
  pKa: 3.2
Snake venom (SVPDE); time 1 h
  mM consumed (31P NMR): 2.57 mM
Snake venom (SVPDE); time 2 h
  mM consumed (31P NMR): 4.17 mM
Snake venom (SVPDE); time 4 h
  mM consumed (31P NMR): 7.12 mM
Snake venom (SVPDE); time 15 h
  mM consumed (31P NMR): 10 mM
Snake venom (SVPDE)
  substrate consumed (digestion): complete consumption
  substrate consumed (cleaved): ca. 25%

## Cc1cn([C@H]2C[C@H](O)[C@@H](C[Se]P(=O)(O)OP(=O)(O)OC[C@H]3O[C@@H](n4cnc5c(N)ncnc54)[C@H](O)[C@@H]3O)O2)c(=O)[nH]c1=O [2b, 5′-deoxy-5′-selenothymidine 5′-pyrophosphate (P′ →5′) adenosine]
[1]
  pKa: 3.4
Snake venom (SVPDE); time 1 h
  mM consumed (31P NMR): 2.13 mM
Snake venom (SVPDE); time 2 h
  mM consumed (31P NMR): 3.19 mM
Snake venom (SVPDE); time 3 h
  mM consumed (31P NMR): 3.98 mM
Snake venom (SVPDE); time 5 h
  mM consumed (31P NMR): 4.41 mM
Snake venom (SVPDE); time 7 h
  mM consumed (31P NMR): 4.45 mM
Snake venom (SVPDE); time 9 h
  mM consumed (31P NMR): 4.48 mM
Snake venom (SVPDE); time 15 h
  mM consumed (31P NMR): 4.61 mM
Snake venom (SVPDE)
  substrate consumed (digestion): ca. 45%
  substrate consumed (cleaved): ~20%

## Cc1cn([C@H]2C[C@H](O)[C@@H](CSP(=O)(O)O)O2)c(=O)[nH]c1=O [4a]
[3]; acidic conditions, 25 °C
  time for hydrolysis: within hours
[3]
  ΔH^‡ of phosphorus-chalcogen bond cleavage: 30.23 kcal/mol
  ΔS^‡ of phosphorus-chalcogen bond cleavage: 79 J mol^−1 K^−1
[3]; pH 3, 298 K
  k (rate constant for the hydrolysis): 152 10^−6 s^−1
[3]; pH 3, estimated on the basis of Table 1
  reactivity difference between 5′-dTSMP (4a) and 5′-TMP (4c): approximately 700,000 fold
[3]; pH 7, 298 K
  k (rate constant for the hydrolysis): 5.19 10^−6 s^−1
[3]; pH 7, 308 K
  k (rate constant for the hydrolysis): 17.1 10^−6 s^−1
[3]; pH 7, 318 K
  k (rate constant for the hydrolysis): 58.4 10^−6 s^−1
[3]; pH 11, 298 K
  k (rate constant for the hydrolysis): 0.34 10^−6 s^−1

## Cc1cn([C@H]2C[C@H](O)[C@@H](C[Se]P(=O)(O)O)O2)c(=O)[nH]c1=O [4b]
[3]
  ΔH^‡ of phosphorus-chalcogen bond cleavage: 26.43 kcal/mol
  ΔS^‡ of phosphorus-chalcogen bond cleavage: 35 J mol^−1 K^−1
[3]; pH 3, 298 K
  k (rate constant for the hydrolysis): 53.1 10^−6 s^−1
[3]; pH 7, 298 K
  k (rate constant for the hydrolysis): 16.8 10^−6 s^−1
[3]; pH 11, 298 K
  k (rate constant for the hydrolysis): 14.4 10^−6 s^−1
[4]; pH 7, 303 K
  k (rate constant for the hydrolysis): 75.1 10^−6 s^−1
[4]; pH 7, 313 K
  k (rate constant for the hydrolysis): 297 10^−6 s^−1

## Cc1cn([C@H]2C[C@H](O)[C@@H](COP(=O)(O)O)O2)c(=O)[nH]c1=O [4c, 5′-TMP, reference compound]
[3]; pH 3, 363 K
  k (rate constant for the hydrolysis): 2.60 10^−6 s^−1

## NC(=O)C1=CN([C@@H]2O[C@H](COP(=O)(O)OP(=O)(O)OC[C@H]3O[C@@H](n4cnc5c(N)ncnc54)[C@H](O)[C@@H]3O)[C@@H](O)[C@H]2O)C=CC1 [NADH, reference compound]
Snake venom (SVPDE); time 1 h
  mM consumed (31P NMR): 9.62 mM
Snake venom (SVPDE); time 2 h
  mM consumed (31P NMR): 10 mM
Snake venom (SVPDE)
  substrate consumed (cleaved): Over 95%

## Cc1cn([C@H]2C[C@H](S[P@](=O)(O)O[P@](=O)(O)OC[C@H]3O[C@@H](n4cnc5c(N)ncnc54)[C@H](O)[C@@H]3O)[C@@H](CO)O2)c(=O)[nH]c1=O [compound 3]
[2]; 90 °C
  half-life of the total disappearance: tens of days
[2]; neutral pH, 90 °C, non-linear regression on thymine formation, rather approximate
  rate constant for dethyminylation: (2.2 ± 0.2) × 10^−7 s^−1

## Nc1ncnc2c1ncn2[C@@H]1O[C@H](CS[P@](=O)(O)O[P@](=O)(O)OC[C@@H](O)[C@@H](O)[C@@H](O)C=O)[C@@H](O)[C@H]1O [compound 13]
[2]; pH 2, 90 °C
  rate constant for the decomposition of the deadenylation (depurination) product: 3.1e-05 s⁻¹
  rate constant for the formation of the deadenylation (depurination) product: 1.9e-05 s⁻¹

## Cc1cn([C@H]2C[C@H](S[P@](=O)(O)O[P@](=O)(O)OC[C@@H](O)[C@@H](O)[C@@H](O)C=O)[C@@H](CO)O2)c(=O)[nH]c1=O [compound 18]
[2]; pH 2, 90 °C
  rate constant for the decomposition of the deadenylation (depurination) product: 2e-05 s⁻¹
  rate constant for the formation of the deadenylation (depurination) product: 2.3e-05 s⁻¹
